pIC50: −log10 of the molar value.
Tested on: 997726-040-R-J2-PDC tumor spheroids, viability
Assay: Anticancer human tumor 997726-040-R-J2-PDC patient-derived squamous cell lung carcinoma cell line growth inhibition [PI3K]
Conditions: spheroids with HUVEC and MSC; for pIC50: curve of first compound; for viability, T/C: stronger effect = lower value
How it was run: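 Viability of mixed-cell spheroids was determined after exposure to pairwise combinations, one partner being inavolisib, alpelisib, duvelisib or copanlisib. Highest tested concentration matched clinical Cmax where known and 10 microM where not, descending in half-log steps.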
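Further: spheroids exposed to compounds for seven days before readout.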

CNC(=O)c1ccc(N2C(=S)N(c3ccc(C#N)c(C(F)(F)F)c3)C(=O)C2(C)C)cc1F + COc1c(OCCCN2CCOCC2)ccc2c3n(c(=NC(=O)c4cnc(N)nc4)nc12)CCN3
pIC50 (second compound 0.00316 µM): < 5.00
pIC50 (second compound 0.01 µM): < 5.00
pIC50 (second compound 0.0316 µM): > 7.50
pIC50 (second compound 0.1 µM): > 7.50
pIC50 (second compound 0.316 µM): > 7.50
pIC50 (second compound 1 µM): > 7.50
viability, T/C (second compound 0.00316 µM, first compound 0.0316 µM): 73.4%
viability, T/C (second compound 0.00316 µM, first compound 0.1 µM): 81.8%
viability, T/C (second compound 0.00316 µM, first compound 0.316 µM): 70.3%
viability, T/C (second compound 0.00316 µM, first compound 1 µM): 76.1%
viability, T/C (second compound 0.00316 µM, first compound 3.16 µM): 77.7%
viability, T/C (second compound 0.00316 µM, first compound 10 µM): 68.2%
viability, T/C (second compound 0.01 µM, first compound 0.0316 µM): 66.2%
viability, T/C (second compound 0.01 µM, first compound 0.1 µM): 61.2%
viability, T/C (second compound 0.01 µM, first compound 0.316 µM): 54.8%
viability, T/C (second compound 0.01 µM, first compound 1 µM): 54.8%
viability, T/C (second compound 0.01 µM, first compound 3.16 µM): 56.4%
viability, T/C (second compound 0.01 µM, first compound 10 µM): 50%
viability, T/C (second compound 0.0316 µM, first compound 0.0316 µM): 38.2%
viability, T/C (second compound 0.0316 µM, first compound 0.1 µM): 40.2%
viability, T/C (second compound 0.0316 µM, first compound 0.316 µM): 35.9%
viability, T/C (second compound 0.0316 µM, first compound 1 µM): 36.6%
viability, T/C (second compound 0.0316 µM, first compound 3.16 µM): 31.1%
viability, T/C (second compound 0.0316 µM, first compound 10 µM): 30.9%
viability, T/C (second compound 0.1 µM, first compound 0.0316 µM): 24.3%
viability, T/C (second compound 0.1 µM, first compound 0.1 µM): 27.4%
viability, T/C (second compound 0.1 µM, first compound 0.316 µM): 21.6%
viability, T/C (second compound 0.1 µM, first compound 1 µM): 24.9%
viability, T/C (second compound 0.1 µM, first compound 3.16 µM): 20.5%
viability, T/C (second compound 0.1 µM, first compound 10 µM): 22.4%
viability, T/C (second compound 0.316 µM, first compound 0.0316 µM): 5.92%
viability, T/C (second compound 0.316 µM, first compound 0.1 µM): 6.55%
viability, T/C (second compound 0.316 µM, first compound 0.316 µM): 5.84%
viability, T/C (second compound 0.316 µM, first compound 1 µM): 6.05%
viability, T/C (second compound 0.316 µM, first compound 3.16 µM): 6.82%
viability, T/C (second compound 0.316 µM, first compound 10 µM): 4.31%
viability, T/C (second compound 1 µM, first compound 0.0316 µM): 1.55%
viability, T/C (second compound 1 µM, first compound 0.1 µM): 1.44%
viability, T/C (second compound 1 µM, first compound 0.316 µM): 1.25%
viability, T/C (second compound 1 µM, first compound 1 µM): 1.13%
viability, T/C (second compound 1 µM, first compound 3.16 µM): 1.39%
viability, T/C (second compound 1 µM, first compound 10 µM): 1.47%

Cn1cnc2c(F)c(Nc3ccc(Br)cc3Cl)c(C(=O)NOCCO)cc21 + COc1c(OCCCN2CCOCC2)ccc2c3n(c(=NC(=O)c4cnc(N)nc4)nc12)CCN3
pIC50 (second compound 0.00316 µM): 7.34
pIC50 (second compound 0.01 µM): > 8.02
pIC50 (second compound 0.0316 µM): > 8.02
pIC50 (second compound 0.1 µM): > 8.02
pIC50 (second compound 0.316 µM): > 8.02
pIC50 (second compound 1 µM): > 8.02
viability, T/C (second compound 0.00316 µM, first compound 0.00949 µM): 60.5%
viability, T/C (second compound 0.00316 µM, first compound 0.03 µM): 55.1%
viability, T/C (second compound 0.00316 µM, first compound 0.0949 µM): 39.2%
viability, T/C (second compound 0.00316 µM, first compound 0.3 µM): 46.1%
viability, T/C (second compound 0.00316 µM, first compound 0.949 µM): 38%
viability, T/C (second compound 0.00316 µM, first compound 3 µM): 33.2%
viability, T/C (second compound 0.01 µM, first compound 0.00949 µM): 44.3%
viability, T/C (second compound 0.01 µM, first compound 0.03 µM): 43%
viability, T/C (second compound 0.01 µM, first compound 0.0949 µM): 39.1%
viability, T/C (second compound 0.01 µM, first compound 0.3 µM): 36.5%
viability, T/C (second compound 0.01 µM, first compound 0.949 µM): 28.6%
viability, T/C (second compound 0.01 µM, first compound 3 µM): 27.5%
viability, T/C (second compound 0.0316 µM, first compound 0.00949 µM): 36.6%
viability, T/C (second compound 0.0316 µM, first compound 0.03 µM): 33.4%
viability, T/C (second compound 0.0316 µM, first compound 0.0949 µM): 26.2%
viability, T/C (second compound 0.0316 µM, first compound 0.3 µM): 24.6%
viability, T/C (second compound 0.0316 µM, first compound 0.949 µM): 24.1%
viability, T/C (second compound 0.0316 µM, first compound 3 µM): 16.7%
viability, T/C (second compound 0.1 µM, first compound 0.00949 µM): 20.8%
viability, T/C (second compound 0.1 µM, first compound 0.03 µM): 20.8%
viability, T/C (second compound 0.1 µM, first compound 0.0949 µM): 15.6%
viability, T/C (second compound 0.1 µM, first compound 0.3 µM): 15.2%
viability, T/C (second compound 0.1 µM, first compound 0.949 µM): 14.7%
viability, T/C (second compound 0.1 µM, first compound 3 µM): 7.1%
viability, T/C (second compound 0.316 µM, first compound 0.00949 µM): 5.7%
viability, T/C (second compound 0.316 µM, first compound 0.03 µM): 5.13%
viability, T/C (second compound 0.316 µM, first compound 0.0949 µM): 2.49%
viability, T/C (second compound 0.316 µM, first compound 0.3 µM): 2.68%
viability, T/C (second compound 0.316 µM, first compound 0.949 µM): 1.51%
viability, T/C (second compound 0.316 µM, first compound 3 µM): 0.35%
viability, T/C (second compound 1 µM, first compound 0.00949 µM): 2.27%
viability, T/C (second compound 1 µM, first compound 0.03 µM): 1.05%
viability, T/C (second compound 1 µM, first compound 0.0949 µM): 0.66%
viability, T/C (second compound 1 µM, first compound 0.3 µM): 0.55%
viability, T/C (second compound 1 µM, first compound 0.949 µM): 0.39%
viability, T/C (second compound 1 µM, first compound 3 µM): 0.27%
